Reference: patent publication US6329498A, “Polypeptide transition metal salts and method of enhancing anti-HIV activity of polypeptide” (Seikagaku Corporation, priority 1996, dated 2001)
Where a SMILES comes first, the peptide text is derived from it.

How the values were obtained:
[1] = system: human immunodeficiency virus (HIV); test: Anti-HIV activity: protection of HIV-infected MT-4 cells from cell death, MTT method; settings: for SI (CC50 /ED50): rough ratio of CC50 to EC50, MT-4 cells
Protocol: To a 96-well microtiter plate, HIV-infected MT-4 cells (2.5×10^4 cells/well, Multiplicity of infection (MOI): 0.001) was added immediately after the infection along with test materials in various concentrations. […] On the other hand, in order to know the cytotoxicity of the test substances on the MT-4 cells, virus-non-infected cells were cultured with the test materials in various concentrations as described above. […] And the rough ratio of CC50 to EC50 (CC50 /EC50) is expressed as an effective ratio (SI).

MT-4 cells = test: Cytotoxicity on virus-non-infected MT-4 cells, MTT method; assay type: cell-based; settings: 5 days at 37° C.
[2] = HIV-infected MT-4 cells, MOI 0.001, 5 days at 37° C., MTT method

Compound	EC50 (concentration to suppress 50% of cell death due to HIV infection) [1, 2] [µg/mL]	CC50 (50% cytotoxic concentration) (MT-4 cells) [µg/mL]	SI (CC50 /ED50) [1]	EC50 ([1]; read-out: EC50 (concentration to suppress 50% of cell death due to HIV infection), HIV-infected MT-4 cells, MOI 0.001, 5 days at 37° C., MTT method, unit μM printed with the compound) [µM]	CC50 (50% cytotoxic concentration) (MT-4 cells; unit μM printed with the compound) [µM]
N=C(N)NCCC[C@H](NC(=O)[C@H](CS)NC(=O)[C@H](CCCCN)NC(=O)[C@H](CCCNC(=N)N)NC(=O)[C@H](Cc1ccc(O)cc1)NC(=O)[C@H](CS)NC(=O)[C@H](Cc1ccc(O)cc1)NC(=O)CNC(=O)[C@H](CCCCN)NC(=O)[C@H](Cc1ccc(O)cc1)NC(=O)[C@H](CS)NC(=O)[C@H](CCCCN)NC(=O)[C@H](CCCNC(=N)N)NC(=O)[C@H](Cc1ccc(O)cc1)NC(=O)[C@H](CS)NC(=O)[C@H](Cc1c[nH]c2ccccc12)NC(=O)[C@H](CCCNC(=N)N)NC(=O)[C@@H](N)CCCNC(=N)N)C(N)=O [Reduced form of polypeptide (1)] (H-RRWCYRKCYKGYCYRKCR-NH2)	0.0052	41.27			
N=C(N)NCCC[C@H](NC(=O)[C@@H]1CSSC[C@H](NC(=O)[C@H](Cc2c[nH]c3ccccc23)NC(=O)[C@H](CCCNC(=N)N)NC(=O)[C@@H](N)CCCNC(=N)N)C(=O)N[C@@H](Cc2ccc(O)cc2)C(=O)N[C@@H](CCCNC(=N)N)C(=O)N[C@@H](CCCCN)C(=O)N[C@H](CCCCN)C(=O)N2CCC[C@H]2C(=O)N[C@@H](Cc2ccc(O)cc2)C(=O)N[C@@H](CCCNC(=N)N)C(=O)N[C@@H](CCCCN)C(=O)N1)C(N)=O [Polypeptide (2), Arg-Arg-Trp-Cys-Tyr-Arg-Lys----------DLys-Pro-----------Tyr-Arg-Lys-Cys-Arg-NH2] (HELM PEPTIDE1{R.R.W.C.Y.R.K.[dK].P.Y.R.K.C.R.[am]}$PEPTIDE1,PEPTIDE1,4:R3-13:R3$$$V2.0)	0.029	44.60	1565		
N=C(N)NCCC[C@H](NC(=O)[C@@H]1CSSC[C@H](NC(=O)[C@H](Cc2c[nH]c3ccccc23)NC(=O)[C@H](CCCNC(=N)N)NC(=O)[C@@H](N)CCCNC(=N)N)C(=O)N[C@@H](Cc2ccc(O)cc2)C(=O)N[C@@H](CCCNC(=N)N)C(=O)N[C@@H](CCCCN)C(=O)N[C@H]2CSSC[C@H](NC(=O)[C@H](Cc3ccc(O)cc3)NC(=O)CNC(=O)[C@H](CCCCN)NC(=O)[C@H](Cc3ccc(O)cc3)NC2=O)C(=O)N[C@@H](Cc2ccc(O)cc2)C(=O)N[C@@H](CCCNC(=N)N)C(=O)N[C@@H](CCCCN)C(=O)N1)C(N)=O [Polypeptide (1)] (HELM PEPTIDE1{R.R.W.C.Y.R.K.C.Y.K.G.Y.C.Y.R.K.C.R.[am]}$PEPTIDE1,PEPTIDE1,4:R3-17:R3|PEPTIDE1,PEPTIDE1,8:R3-13:R3$$$V2.0; bridges inferred)	0.0047	41.53			
N=C(N)NCCC[C@H](NC(=O)[C@H](CS)NC(=O)[C@H](CCCCN)NC(=O)[C@H](CCCNC(=N)N)NC(=O)[C@H](Cc1ccc(O)cc1)NC(=O)[C@@H]1CCCN1C(=O)[C@@H](CCCCN)NC(=O)[C@H](CCCCN)NC(=O)[C@H](CCCNC(=N)N)NC(=O)[C@H](Cc1ccc(O)cc1)NC(=O)[C@H](CS)NC(=O)[C@H](Cc1c[nH]c2ccccc12)NC(=O)[C@H](CCCNC(=N)N)NC(=O)[C@@H](N)CCCNC(=N)N)C(N)=O [Reduced form of] (HELM PEPTIDE1{R.R.W.C.Y.R.K.[dK].P.Y.R.K.C.R.[am]}$$$$V2.0)	0.040	41.17			
Dextran sulfate [reference compound]	0.68				
Cc1cn([C@H]2C[C@H](N=[N+]=[N-])[C@@H](CO)O2)c(=O)[nH]c1=O [AZT, reference compound]			1716	0.0011	1.93
